Assay results reported in ChEMBL document CHEMBL3351419, “Orally bioavailable 6-chloro-7-methoxy-4(1H)-quinolones efficacious against multiple stages of Plasmodium” (J Med Chem, 2014).
pEC50: −log10 of the molar value. In brackets after ≈: the same amount, converted by molar mass.

How the values were obtained:
Liver microsome [1] = assay: (§1) Intrinsic clearance in human liver microsomes at 1 uM by LC-MS analysis; format: ADME; conditions: microsomes, 1 µM
[2] = Cytotoxicity index, ratio of EC50 for mouse J774 cells to EC50 for multi-drug-resistant Plasmodium falciparum TM90-C2B infected in human type A+ erythrocytes; format: toxicity, cell-based; conditions: read-out: Ratio EC50
J774 = assay: Cytotoxicity against mouse J774 cells after 72 hrs by CellTiter 96 assay; format: cell-based; conditions: J774, 72 h
[3] = Resistance index, ratio of EC50 for multi-drug-resistant Plasmodium falciparum TM90-C2B infected in human type A+ erythrocytes to EC50 for multi-drug-resistant Plasmodium falciparum W2 infected in human type A+ erythrocytes; format: functional
Plasmodium berghei [4] = assay: Antimalarial activity against Plasmodium berghei ANKA expressing GFP infected in Balb/c mouse assessed as mouse survival at 50 mg/kg, po qd administered as single dose on day 3 to 5 of exposure measured on day 6 post exposure by in vivo thomson test relative to control; format: functional
Plasmodium berghei [5] = assay: Antimalarial activity against Plasmodium berghei ANKA expressing GFP infected in Balb/c mouse assessed as inhibition of parasitemia at 50 mg/kg, po qd administered as single dose on day 3 to 5 of exposure measured on day 6 post exposure by in vivo thomson test relative to control; format: functional
Plasmodium falciparum [6] = assay: Antimalarial activity against multi-drug-resistant Plasmodium falciparum TM90-C2B infected in human type A+ erythrocytes assessed as growth inhibition after 72 hrs by SYBR Green I assay; format: functional, organism-based
[7] = as §1; format: ADME; conditions: liver microsomes, read-out: CLH
Plasmodium falciparum [8] = assay: Antimalarial activity against multi-drug-resistant Plasmodium falciparum W2 infected in human type A+ erythrocytes assessed as growth inhibition after 72 hrs by SYBR Green I assay; format: functional, organism-based; conditions: W2, 72 h
Plasmodium berghei [9] = assay: Antimalarial activity against Plasmodium berghei ANKA expressing GFP infected in Balb/c mouse assessed as mouse cured from disease at 50 mg/kg, po qd administered as single dose on day 3 to 5 of exposure measured on day 30 post exposure by in vivo thomson test relative to control; format: functional
[10] = octanol/water, pH 7.4
in vitro = conditions: pampa, pH 7.4
Description: (§2) Effective permeability of the compound at pH 7.4 by PAMPA

Plasmodium berghei [11] = assay: Antimalarial activity against Plasmodium berghei ANKA expressing GFP infected in Balb/c mouse assessed as inhibition of parasitemia at 10 mg/kg, po qd administered as single dose on day 3 to 5 of exposure measured on day 6 post exposure by in vivo thomson test relative to control; format: functional
Plasmodium berghei [12] = assay: Antimalarial activity against Plasmodium berghei ANKA expressing GFP infected in Balb/c mouse assessed as mouse survival at 10 mg/kg, po qd administered as single dose on day 3 to 5 of exposure measured on day 6 post exposure by in vivo thomson test relative to control; format: functional
Plasmodium berghei [13] = assay: Antimalarial activity against Plasmodium berghei ANKA expressing GFP infected in Balb/c mouse assessed as mouse cured from disease at 10 mg/kg, po qd administered as single dose on day 3 to 5 of exposure measured on day 30 post exposure by in vivo thomson test relative to control; format: functional
[14] = Aqueous solubility of the compound at pH 7.4; format: physicochemical; conditions: buffer
Plasmodium berghei [15] = assay: Antimalarial activity against Plasmodium berghei ANKA expressing GFP infected in Balb/c mouse assessed as mouse cured from disease at 3 mg/kg, po qd administered as single dose on day 3 to 5 of exposure measured on day 30 post exposure by in vivo thomson test relative to control; format: functional
Liver microsome [16] = assay: Half life in human liver microsomes at 1 uM by LC-MS analysis; format: ADME
Plasmodium berghei [17] = assay: Antimalarial activity against Plasmodium berghei ANKA expressing GFP infected in Balb/c mouse assessed as mouse survival at 3 mg/kg, po qd administered as single dose on day 3 to 5 of exposure measured on day 6 post exposure by in vivo thomson test relative to control; format: functional
Plasmodium berghei [18] = assay: Antimalarial activity against Plasmodium berghei ANKA expressing GFP infected in Balb/c mouse assessed as inhibition of parasitemia at 3 mg/kg, po qd administered as single dose on day 3 to 5 of exposure measured on day 6 post exposure by in vivo thomson test relative to control; format: functional
Plasmodium berghei [19] = assay: Antimalarial activity against Plasmodium berghei ANKA expressing GFP infected in Balb/c mouse assessed as inhibition of parasitemia at 1 mg/kg, po qd administered as single dose on day 3 to 5 of exposure measured on day 6 post exposure by in vivo thomson test relative to control; format: functional
[20] = Apparent oral bioavailability in Sprague-Dawley rat at 10 mg/kg; format: ADME, organism-based; conditions: in vivo
[21] = Volume of distribution in Sprague-Dawley rat at 0.15 mg/kg, iv; format: ADME, organism-based; design: dose 0.15 mg/kg, route intravenous; conditions: in vivo
Plasmodium berghei [22] = assay: Antimalarial activity against Plasmodium berghei ANKA expressing GFP infected in Balb/c mouse assessed as mouse survival at 1 mg/kg, po qd administered as single dose on day 3 to 5 of exposure measured on day 6 post exposure by in vivo thomson test relative to control; format: functional
Rattus norvegicus = assay: Half life in Sprague-Dawley rat at 0.15 mg/kg, iv; format: ADME, organism-based; design: dose 0.15 mg/kg, route intravenous; conditions: in vivo
[23] = Plasma clearance in Sprague-Dawley rat at 0.15 mg/kg, iv; format: ADME, organism-based; design: dose 0.15 mg/kg, route intravenous
[24] = pampa, pH 7.4
Description: as §2

Plasmodium berghei [25] = assay: Antimalarial activity against Plasmodium berghei ANKA expressing GFP infected in Balb/c mouse assessed as mouse survival at 0.3 mg/kg, po qd administered as single dose on day 3 to 5 of exposure measured on day 6 post exposure by in vivo thomson test relative to control; format: functional
Plasmodium berghei [26] = assay: Antimalarial activity against Plasmodium berghei ANKA expressing GFP infected in Balb/c mouse assessed as inhibition of parasitemia at 0.3 mg/kg, po qd administered as single dose on day 3 to 5 of exposure measured on day 6 post exposure by in vivo thomson test relative to control; format: functional
Liver = assay: Half life in mouse liver microsomes at 1 uM by LC-MS analysis; format: ADME
Plasmodium berghei [27] = assay: Antimalarial activity against Plasmodium berghei ANKA expressing GFP infected in Balb/c mouse assessed as mouse survival at 30 mg/kg, po qd administered as single dose on day 3 to 5 of exposure measured on day 6 post exposure by in vivo thomson test relative to control; format: functional

Structure (SMILES) | selectivity ratio [2] | pEC50 (J774) | Ratio EC50 [3] | mouse survival time at 50 mg/kg (Plasmodium berghei [4]) [days] | pEC50 (Plasmodium falciparum [6]) | pEC50 (Plasmodium falciparum [8]) | logD [10] | inhibition in vivo at 10 mg/kg (Plasmodium berghei [11]) [%] | survival time at 10 mg/kg (Plasmodium berghei [12]) [days] | Activity (Plasmodium berghei [13]) [%] | solubility kinetic [14] [µM] | Activity (Plasmodium berghei [15]) [%] | survival time at 3 mg/kg (Plasmodium berghei [17]) [days] | inhibition in vivo at 3 mg/kg (Plasmodium berghei [18]) [%] | other results
CCc1c(C)[nH]c2cc(OC)c(Cl)cc2c1=O |  |  |  |  |  |  |  |  |  |  |  |  |  |  | CLint_mic (Liver microsome [1]): 56 µL/min/mg
COc1cc2[nH]c(C)c(-c3ccccc3)c(=O)c2cc1Cl | > 2170 | < 4.48 | 0.59 | 0 |  |  |  |  |  |  |  |  |  |  | CLint_mic (Liver microsome [1]): 17 µL/min/mg; inhibition in vivo at 50 mg/kg (Plasmodium berghei [5]): < 1%
COc1cc2[nH]c(C)c(-c3cccnc3)c(=O)c2cc1Cl | > 277 | < 4.48 | 0.16 |  | 6.92 | 6.13 |  |  |  |  |  |  |  |  | microsomal CLint at 1 µM [7]: 15 µL/min/mg
COc1cc2[nH]c(C)c(-c3ccncc3)c(=O)c2cc1Cl | > 152 | < 4.48 | 1.71 |  | 6.66 | 6.89 |  |  |  |  |  |  |  |  | CLint_mic (Liver microsome [1]): 15 µL/min/mg
COc1cc2[nH]c(C)c(-c3ccc(Cl)cc3C)c(=O)c2cc1Cl |  | < 4.54 |  | 5 |  | 7.85 | 2.9 | 95 | 5 | 0 | < 2 |  |  |  | Activity (Plasmodium berghei [9]): 0%; Papp (in vitro): 369 ×10⁻⁶ cm/s; inhibition in vivo at 50 mg/kg (Plasmodium berghei [5]): 71%
COc1cc2[nH]c(C)c(-c3ccc(C(F)(F)F)cc3C)c(=O)c2cc1Cl | > 45300 | < 4.58 | 0.29 | 0 | 9.24 | 8.69 | 2.7 | 80 | 6 | 0 | < 2 | 100 | 23 | 84 | Activity (Plasmodium berghei [9]): 0%; t1/2 (Liver microsome [16]): 236 min
COc1cc2[nH]c(C)c(-c3ccc(Oc4ccc(OC(F)(F)F)cc4)cc3F)c(=O)c2cc1Cl | > 1330 | < 4.69 | 4.07 | 23 | 7.82 | 8.43 | 3.4 | 99.5 | 23 | 100 | < 2 | 100 | 23 | 99.3 | Activity (Plasmodium berghei [9]): 100%; inhibition in vivo at 1 mg/kg (Plasmodium berghei [19]): 99.3%; bioavailability [20]: 14%; Vd [21]: 0.7 L/kg; survival at 1 mg/kg (Plasmodium berghei [22]): 23 days; t1/2 (Rattus norvegicus): 32 h; inhibition in vivo at 50 mg/kg (Plasmodium berghei [5]): 99.2%; clearance [23]: 0.3 mL/min/kg
COc1cc2[nH]c(C)c(-c3ccc(-c4ccc(C(F)(F)F)cc4F)nc3)c(=O)c2cc1Cl | > 20400 | < 4.67 | 1.76 |  | 8.97 | 9.22 | 3.7 | 95.2 | 23 | 100 | 6 to 12 (≈ 2.78 to 5.55 µg/mL) | 100 | 23 | 96.3 | inhibition in vivo at 1 mg/kg (Plasmodium berghei [19]): 94.5%; Peff [24]: 1070 ×10⁻⁶ cm/s; survival at 0.3 mg/kg (Plasmodium berghei [25]): 23 days; survival at 1 mg/kg (Plasmodium berghei [22]): 23 days; inhibition in vivo at 0.3 mg/kg (Plasmodium berghei [26]): 94.3%
COc1cc2[nH]c(C)c(-c3ccc(-c4ccc(OC(F)(F)F)cc4)nc3)c(=O)c2cc1Cl | > 10700 | < 4.66 | 2.95 |  | 8.69 | 9.16 | 3.7 | 97.3 | 23 | 100 | 6 to 12 (≈ 2.77 to 5.53 µg/mL) | 80 | 23 | 97.3 | inhibition in vivo at 1 mg/kg (Plasmodium berghei [19]): 95.8%; survival at 0.3 mg/kg (Plasmodium berghei [25]): 23 days; survival at 1 mg/kg (Plasmodium berghei [22]): 23 days; inhibition in vivo at 0.3 mg/kg (Plasmodium berghei [26]): 93.9%
CCCCCCCc1c(C)nc2cc(OC)ccc2c1O |  |  |  |  |  |  |  |  |  |  |  |  |  |  | t1/2 (Liver): 7.9 min
CCN(CC)Cc1cc(Nc2ccnc3cc(Cl)ccc23)ccc1O [AMODIAQUINE] |  |  |  |  |  |  |  |  |  |  |  |  |  |  | survival at 30 mg/kg (Plasmodium berghei [27]): 23 days
